Values of other authors as cited in patent US20260185050A1, “BIOLOGIC INTERFACIAL TISSUE-ENGINEERED SYSTEMS USEFUL AS ARTHROPOD BITEMODEL” (UNIVERSITY OF CENTRAL FLORIDA RESEARCH FOUNDATION, INC., priority 2022, published 2026).

How the values were obtained:
[1] = C5 epimers of alginate
Aedes aegypti = conditions: selective dose response work, males and females
Aedes albopictus = conditions: selective dose response work, males and females
Culex pipiens = conditions: select experiments

With `O=C(O)[C@@H]1O[C@@H](O)[C@@H](O)[C@@H](O)[C@@H]1O` [G, α-L-guluronate] as the compound, how does the pKa [1] read?
Its pKa is 3.65.

For `O=C(O)[C@H]1O[C@@H](O)[C@@H](O)[C@@H](O)[C@@H]1O` [M, β-D-mannuronate], which pKa [1] is on record?
Its pKa is 3.38.

What does the source list for `CC(O)CO` (centres unmarked) [propylene glycol]?
kill performance versus erythritol (Aedes aegypti): outperform erythritol; kill performance versus erythritol (Aedes albopictus): outperform erythritol; kill performance versus erythritol (Culex pipiens): outperform erythritol
